# Reference: publication PMC7926793, “Synthesis and Biological Evaluation of 1-(Diarylmethyl)-1H-1,2,4-triazoles and 1-(Diarylmethyl)-1H-imidazoles as a Novel Class of Anti-Mitotic Agent for Activity in Breast Cancer” (Pharmaceuticals, 2021)
# Values joined by “and” are separate entries in the source; they are usually repeats but may differ in a detail not shown here. Equal values may be shown once. Read-outs that look alike come from different tables or passages of the source.
# Tests used:
# SF-268 = assay: NCI 60 cell line screen (CNS Cancer); type: cell-based, human; conditions: for GI50: Homo sapiens, SF-268, NCI 5 dose assay; for Growth percentage: SF-268, single dose 10 µM
# HCT-2998 = assay: NCI 60 cell line screen (Colon Cancer); type: cell-based, human; conditions: for Growth percentage: HCT-2998, single dose 10 µM; for GI50: Homo sapiens, 60 cell, HCT-2998, NCI 5 dose assay
# OVCAR-8 = assay: NCI 60 cell line screen (Ovarian Cancer); type: cell-based, human; conditions: for GI50: Homo sapiens, OVCAR-8, NCI 5 dose assay; for Growth percentage: OVCAR-8, single dose 10 µM
# MDA-MB-435 = assay: NCI 60 cell line screen (Melanoma); type: cell-based, human; conditions: for GI50: Homo sapiens, MDA-MB-435, NCI 5 dose assay; for Growth percentage: MDA-MB-435, single dose 10 µM
# M14 = assay: NCI 60 cell line screen (Melanoma); type: cell-based, human; conditions: for GI50: Homo sapiens, M14, NCI 5 dose assay; for Growth percentage: M14, single dose 10 µM
# T-47D = assay: NCI 60 cell line screen (Breast Cancer); type: cell-based, human; conditions: single dose 10 µM
# [1] = tested on: tubulin (microtubule network) in MCF-7 cells; assay: immunofluorescence confocal microscopy of microtubule network; type: cell-based, human; conditions: 10 μM, 16 h
# Method: Confocal microscopy was used to study the effects of drug treatment on MCF-7 cytoskeleton. For immunofluorescence, MCF-7 cells were seeded at 1 × 10^5 cells/mL on eight chamber glass slides (BD Biosciences). […] Following treatment, cells were gently washed in PBS, fixed for 20 min with 4% paraformaldehyde in PBS, and permeabilised in 0.5% Triton X-100. Following washes in PBS containing 0.1% Tween (PBST), cells were blocked in 5% bovine serum albumin diluted in PBST. […] Following washes in PBST, the cells were mounted in Ultra Cruz Mounting Media (Santa Cruz Biotechnology, Santa Cruz, CA) containing 4,6-diamino-2-phenolindol dihydrochloride (DAPI). Images were captured by Leica SP8 confocal microscopy with Leica application suite X software. All images in each experiment were collected on the same day using identical parameters. Experiments were performed on three independent occasions.
# HL-60 leukaemia cells = assay: cell viability assay; type: cell-based; conditions: Homo sapiens, read-out: Antiproliferative Activity HL-60 Cells IC50
# Method: The human breast carcinoma cell line MCF-7 was purchased from the European Collection of Animal Cell Cultures (ECACC) and cultured in Eagles minimum essential medium with 10% foetal bovine serum, 2 mM L-glutamine, and 100 μg/mL penicillin/streptomycin. The medium was supplemented with 1% non-essential amino acids. The human breast carcinoma cell line MDA-MB-231 was purchased from the ECACC. MDA-MB-231 cells were maintained in Dulbecco’s modified Eagle’s medium (DMEM) supplemented with 10% (v/v) foetal bovine serum, 2 mM L-glutamine, and 100 μg/mL penicillin/streptomycin (complete medium). HL-60 cells were derived from a patient with acute myeloid leukaemia and were obtained from the ECACC (Salisbury, UK). Cells were cultured in RPMI-1640 Glutamax medium supplemented with 10% FCS media and 100 μg/mL penicillin/streptomycin. MCF-10A cells were obtained as a kind gift from Dr Susan McDonnell, School of Chemical and Bioprocess Engineering, University College Dublin and were cultured in Dulbecco’s Modified Eagle Medium: Nutrient Mixture F-12 (DMEM/F12; Gibco) supplemented with 5% horse serum (Invitrogen), 20 ng mL^−1 epidermal growth factor (Merck Millipore), 0.5 μg mL^−1 hydrocortisone (Sigma,-Aldrich, Arklow, Co. Wicklow, Ireland), 100 ng mL^−1 cholera toxin (Sigma, Aldrich, Arklow, Co. Wicklow, Ireland), 10 μg mL^−1 insulin (Sigma, Aldrich, Arklow, Co. Wicklow, Ireland), and penicillin/streptomycin 5000 U mL^−1 (1%)(Gibco, Biosciences, 3 Charlemont Terrace, Crofton Road, Dun Laoghaire, Co Dublin, A96 K7H7, Ireland). […]
# Cells were seeded at a density of 2.5 × 10^4 cells/well (MCF-7, MDA-MB-231, MCF-10A cells) and 1 × 10^4 cells/well (HL-60) in 96-well plates (200 μL per well). […] Cell proliferation for MCF-7, MDA-MB-231, and MCF-10A cells was analysed using the alamarBlue assay (Invitrogen Corp.) according to the manufacturer’s instructions. […] Fluorescence was read using a 96-well fluorimeter with excitation at 530 nm and emission at 590 nm. Results were expressed as percentage viability relative to vehicle control (100%).
# SW-620 = assay: NCI 60 cell line screen (Colon Cancer); type: cell-based, human; conditions: for GI50: Homo sapiens, SW-620, NCI 5 dose assay; for Growth percentage: SW-620, single dose 10 µM
# MCF-7 cells = assay: cell cycle analysis, PI staining, flow cytometry; type: cell-based, human; conditions: 1 μM
# Method: The cells were collected by trypsinisation and centrifuged at 800× g for 15 min. Cells were washed twice with ice-cold phosphate-buffered saline (PBS) and fixed in ice-cold 70% ethanol overnight at −20 °C.
# RXF 393 = assay: NCI 60 cell line screen (Renal Cancer); type: cell-based, human; conditions: for Growth percentage: RXF 393, single dose 10 µM
# SNB-75 = assay: NCI 60 cell line screen (CNS Cancer); type: cell-based, human; conditions: for Growth percentage: SNB-75, single dose 10 µM
# MOLT-4 = assay: NCI 60 cell line screen (Leukemia); type: cell-based, human; conditions: for GI50: Homo sapiens, MOLT-4, NCI 5 dose assay; for Growth percentage: MOLT-4, single dose 10 µM
# HCT-15 = assay: NCI 60 cell line screen (Colon Cancer); type: cell-based, human; conditions: for Growth percentage: HCT-15, single dose 10 µM; for GI50: Homo sapiens, HCT-15, NCI 5 dose assay
# HOP-62 = assay: NCI 60 cell line screen (Non-Small Cell Lung Cancer); type: cell-based, human; conditions: for Growth percentage: HOP-62, single dose 10 µM; for GI50: Homo sapiens, HOP-62, NCI 5 dose assay
# NCI 60 cell line panel = assay: NCI 60 cell line screen, panel means; type: cell-based, human; conditions: for Mean Growth percentage: 60 cell line panel, single dose 10 µM; for GI50 / LC50 (50% lethal concentration): Homo sapiens; for mean growth: 10 μM
# HCT-116 = assay: NCI 60 cell line screen (Colon Cancer); type: cell-based, human; conditions: for Growth percentage: HCT-116, single dose 10 µM; for GI50: Homo sapiens, HCT-116, NCI 5 dose assay
# K-562 = assay: NCI 60 cell line screen (Leukemia); type: cell-based, human; conditions: for GI50: Homo sapiens, K562, K-562, NCI 5 dose assay; for Growth percentage: K-562, single dose 10 µM
# [2] = 60 cell, NCI 5 dose assay, 60 cell lines, read-out: MG-MID (mean of GI50 values over all cell lines)
smiles,measurement,setting,value
"COc1ccc(C(c2cc(OC)c(OC)c(OC)c2)n2ccnc2)cc1O (centres unmarked) [21l, 5-((1H-Imidazol-1-yl)(3,4,5-Trimethoxyphenyl)Methyl)-2-Methoxyphenol]",GI50,SF-268,731 nM
same,Growth percentage,SF-268,39.64%
same,Growth percentage,HCT-2998,24.97%
same,GI50,HCT-2998,1720 nM
same,GI50,OVCAR-8,450 nM
same,Growth percentage,OVCAR-8,10.28%
same,GI50,MDA-MB-435,119 nM
same,Growth percentage,MDA-MB-435,-29.47%
same,GI50,M14,180 nM
same,Growth percentage,M14,0.91%
same,Growth percentage,T-47D,42.62%
same,effect on microtubule network of MCF-7 cells,[1],disorganised microtubule networks
same,IC50,HL-60 leukaemia cells,156 ± 52 nM
same,GI50,SW-620,387 nM
same,Growth percentage,SW-620,28.61%
same,cells in the G2/M phase,MCF-7 cells; 24 h,47%
same,cells undergoing apoptosis (sub-G1),MCF-7 cells; 24 h,15%
same,cells in the G2/M phase,MCF-7 cells; 48 h,43%
same,cells undergoing apoptosis (sub-G1),MCF-7 cells; 48 h,31%
same,cells in the G2/M phase,MCF-7 cells; 72 h,40%
same,cells undergoing apoptosis (sub-G1),MCF-7 cells; 72 h,37%
same,Growth percentage,RXF 393,-5.38%
same,GI50,"SNB-75; Homo sapiens, SNB-75, NCI 5 dose assay",192 nM
same,Growth percentage,SNB-75,56.72%
same,GI50,MOLT-4,565 nM
same,Growth percentage,MOLT-4,14.01%
same,Growth percentage,HCT-15,7.70%
same,GI50,HCT-15,264 nM
same,Growth percentage,HOP-62,29.46%
same,GI50,HOP-62,516 nM
same,Mean Growth percentage,NCI 60 cell line panel,23.38%
same,MID TGI (total growth inhibition),NCI 60 cell line panel; 60 cell lines,40700 nM
same,GI50,"NCI 60 cell line panel; 60 cell, CNS cancer cell lines, read-out: GI50 range",192 to 731 nM
same,GI50,NCI 60 cell line panel; [2],234 nM
same,GI50,"NCI 60 cell line panel; 60 cell, breast cancer panel, read-out: GI50 range",306 to 664 nM
same,LC50 (50% lethal concentration),"NCI 60 cell line panel; 60 cell, COMPARE analysis text, read-out: LC50 values (all)",> 100000 nM
same,LC50 (50% lethal concentration),"NCI 60 cell line panel; 60 cell lines, read-out: MID LC50",> 100000 nM
same,Growth percentage,HCT-116,6.88%
same,GI50,HCT-116,249 nM
same,GI50,K-562,225 nM
same,Growth percentage,K-562,8.00%
COc1ccc(C(c2cc(OC)c(OC)c(OC)c2)n2nccn2)cc1O (centres unmarked) [compound 24],IC50,HL-60 leukaemia cells,173 ± 55 nM
same,cells in the G2/M phase,MCF-7 cells; 24 h,52%
same,cells in the G2/M phase,MCF-7 cells; 48 h,56%
same,cells in the G2/M phase,MCF-7 cells; 72 h,59%
"COc1ccc(C(c2cc(OC)c(OC)c(OC)c2)n2cncn2)cc1O (centres unmarked) [19e, 5-((1H-1,2,4-Triazol-1-yl)(3,4,5-Trimethoxyphenyl)methyl)-2-Methoxyphenol]",GI50,SF-268,469 nM
same,Growth percentage,SF-268,48.75%
same,Growth percentage,HCT-2998,25.25%
same,GI50,HCT-2998,1350 nM
same,GI50,OVCAR-8,1140 nM
same,Growth percentage,OVCAR-8,13.43%
same,GI50,MDA-MB-435,181 nM
same,Growth percentage,MDA-MB-435,-46.16%
same,GI50,M14,374 nM
same,Growth percentage,M14,-1.61%
same,Growth percentage,T-47D,34.98%
same,effect on microtubule network of MCF-7 cells,[1],disorganised microtubule networks
same,GI50,SW-620,431 nM
same,Growth percentage,SW-620,29.08%
same,GI50,"RXF 393; Homo sapiens, RXF 393, NCI 5 dose assay",321 nM
same,Growth percentage,RXF 393,-13.85%
same,Growth percentage,SNB-75,48.64%
same,GI50,MOLT-4,510 nM
same,Growth percentage,MOLT-4,16.7%
same,Growth percentage,HCT-15,10.04%
same,GI50,HCT-15,438 nM
same,Growth percentage,HOP-62,32.17%
same,GI50,HOP-62,514 nM
same,Mean Growth percentage,NCI 60 cell line panel,26.24%
same,MID TGI (total growth inhibition),NCI 60 cell line panel; 60 cell lines,53700 nM
same,GI50,NCI 60 cell line panel; [2],243 nM
same,Growth percentage,HCT-116,7.25%
same,GI50,HCT-116,448 nM
same,GI50,K-562,427 nM
same,Growth percentage,K-562,8.34%
COc1ccc(C(c2cc(OC)c(OC)c(OC)c2)N2CCN(Cc3ccccc3)CC2)cc1 (centres unmarked) [27d],Growth percentage,SF-268,86.44%
same,Growth percentage,HCT-2998,91.92%
same,Growth percentage,OVCAR-8,92.58%
same,Growth percentage,MDA-MB-435,-32.20%
same,Growth percentage,M14,52.83%
same,Growth percentage,T-47D,75.11%
same,Growth percentage,SW-620,43.57%
same,Growth percentage,RXF 393,72.30%
same,Growth percentage,SNB-75,92.44%
same,Growth percentage,MOLT-4,53.48%
same,Growth percentage,HCT-15,47.63%
same,Growth percentage,HOP-62,69.72%
same,Mean Growth percentage,NCI 60 cell line panel,65.45% and 65.5%
same,Growth percentage,HCT-116,56.66%
same,Growth percentage,K-562,26.38%
"COc1ccc(C(c2cc(OC)c(OC)c(OC)c2)N2CCCCC2)cc1 (centres unmarked) [26b, 1-((4-Methoxyphenyl)(3,4,5-Trimethoxyphenyl)Methyl)Piperidine]",Growth percentage,SF-268,47.22%
same,Growth percentage,HCT-2998,79.59%
same,Growth percentage,OVCAR-8,50.11%
same,Growth percentage,MDA-MB-435,-21.79%
same,Growth percentage,M14,23.27%
same,Growth percentage,T-47D,33.59%
same,Growth percentage,SW-620,14.47%
same,Growth percentage,RXF 393,25.99%
same,Growth percentage,SNB-75,26.61%
same,Growth percentage,MOLT-4,31.54%
same,Growth percentage,HCT-15,20.63%
same,Growth percentage,HOP-62,29.82%
same,Mean Growth percentage,NCI 60 cell line panel,34.17% and 34.2%
same,mean growth,NCI 60 cell line panel; breast cancer panel,30.3%
same,mean growth,NCI 60 cell line panel; leukaemia panel,23.5%
same,Growth percentage,HCT-116,29.08%
same,Growth percentage,K-562,18.04%
COc1ccc(C(c2cc(OC)c(OC)c(OC)c2)N2CCCC2)cc1 (centres unmarked) [25g],Growth percentage,SF-268,84.26%
same,Growth percentage,HCT-2998,89.14%
same,Growth percentage,OVCAR-8,95.58%
same,Growth percentage,MDA-MB-435,-21.80%
same,Growth percentage,M14,60.08%
same,Growth percentage,T-47D,89.77%
same,Growth percentage,SW-620,47.76%
same,Growth percentage,RXF 393,103.13%
same,Growth percentage,SNB-75,84.06%
same,Growth percentage,MOLT-4,78.09%
same,Growth percentage,HCT-15,52.67%
same,Growth percentage,HOP-62,79.46%
same,Mean Growth percentage,NCI 60 cell line panel,73.14% and 73.1%
same,Growth percentage,HCT-116,62.27%
same,Growth percentage,K-562,25.23%
